ChEMBL document CHEMBL1201862, “PubChem BioAssay data set” (2004)
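Dose response: 5 concentrations. Exposure: 48 h. Format: 96-well plates. Endpoint: linear interpolation; highest concentration if not reached. Abbreviation: GI50, concentration required for 50% inhibition of growth.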 Active and inactive are the calls of the source. Rule as the data show it: active = GI50 up to about 1.1 µM and inactive = higher.

Legend:
Experiment in all cases: DTP human tumour cell line panel, 48 h
[1] = tested on: A549
[2] = tested on: SW-620
[3] = tested on: U-251
[4] = tested on: COLO 205
[5] = tested on: SK-MEL-5
[6] = tested on: SNB-19
[7] = tested on: OVCAR-8
[8] = tested on: K562
[9] = tested on: NCI-H522
[10] = tested on: HL-60
[11] = tested on: OVCAR-3
[12] = tested on: SNB-75
[13] = tested on: HT-29
[14] = tested on: CAKI-1
[15] = tested on: KM12
[16] = tested on: LOX IMVI
[17] = tested on: SR
[18] = tested on: CCRF-CEM
[19] = tested on: SK-OV-3
[20] = tested on: UO-31

Row | SMILES | GI50 [1] | GI50 [2] | GI50 [3] | GI50 [4] | GI50 [5] | GI50 [6] | GI50 [7] | GI50 [8] | GI50 [9] | GI50 [10] | GI50 [11] | GI50 [12] | GI50 [13] | GI50 [14] | GI50 [15] | GI50 [16] | GI50 [17] | GI50 [18] | GI50 [19] | GI50 [20]
1 | O=C(/C=C/c1c(O)ccc2ccccc12)c1cccc2ccccc12 | > 100 µM (inactive) | > 37.1 µM (inactive) | > 71.9 µM (inactive) | > 100 µM (inactive) | > 100 µM (inactive) | > 89.5 µM (inactive) | > 100 µM (inactive) | 51.5 µM (inactive) | 27.5 µM (inactive) | > 43.8 µM (inactive) | > 100 µM (inactive) | > 52.4 µM (inactive) | > 72.4 µM (inactive) | > 100 µM (inactive) | > 100 µM (inactive) | > 59 µM (inactive) | 36 µM (inactive) | 23.7 µM (inactive) | > 100 µM (inactive) | 34 µM (inactive)
2 | COc1ccc(C(=O)Oc2c(C#N)sc3c2c(=O)n(-c2ccccc2)c(=S)n3-c2ccccc2)cc1 | 30.1 µM (inactive) | 32.7 µM (inactive) | 25.8 µM (inactive) | 25.8 µM (inactive) | 21.6 µM (inactive) | 33.2 µM (inactive) | 24.7 µM (inactive) | 30.3 µM (inactive) | 0.131 µM (active) | 22.2 µM (inactive) | 20.3 µM (inactive) | > 100 µM (inactive) | 22.2 µM (inactive) | 22.3 µM (inactive) | 18.5 µM (inactive) | 19.5 µM (inactive) | < 0.01 µM (active) | 15.1 µM (inactive) | 33.9 µM (inactive) | 2.12 µM (inactive)
3 | Cc1ccc(S(=O)(=O)C2=c3ncccc3=C3C(=O)c4ccccc4C(=O)C32)cc1 (stereo not given) | > 100 µM (inactive) | > 100 µM (inactive) | 57.7 µM (inactive) | > 100 µM (inactive) | 2.79 µM (inactive) | 48.9 µM (inactive) | 39.4 µM (inactive) | > 95.9 µM (inactive) | 4.38 µM (inactive) | 99.5 µM (inactive) | 55.8 µM (inactive) | 52.6 µM (inactive) | > 100 µM (inactive) | 64.6 µM (inactive) | > 9.95 µM (inactive) | > 100 µM (inactive) | > 100 µM (inactive) | > 95.1 µM (inactive) | 38.2 µM (inactive) | > 72.1 µM (inactive)
